Read-outs that look alike come from different tables or passages of the source.
Legend:
MEF-IGF1R cells = assay: Proliferation/viability of MEF-IGF1R (Thymidine [14C] incorporation); format: cell-based; settings: rhIGF1 100 ng/mL, incubation 72 hours, read-out: Test C IC50
Experimental: C) Measurement of the Proliferation/Viability of MEF-IGF1R
Cell culture: the MEF-IGF1R cells (stable clone of cells transfected with the receptor hIGF-1R) are cultured at 37° C. under 5% CO2 in EMEM medium containing 10% FCS.
Test procedure: the cells are seeded at 5000 cells per well in 96-well Cytostar plates (Amersham) with 0.2 mL of EMEM culture medium at 37° C. for 18 hours. The cells are then washed twice with EMEM medium and left to culture without serum for 24 hours. The compounds are then added at various concentrations in the presence of rhIGF1 (100 ng/mL) and 0.1 μCi of Thymidine [^14C] (specific activity ˜50 mCi/mmol) to give 0.2 mL of volume per well. After incubation for 72 hours in the presence of the compound, at 37° C. under 5% CO2, the incorporation of Thymidine [^14C] is measured by counting the radioactivity on a Microbeta trilux counter (Perkin-Elmer). The IC50 is determined from 10 increasing concentrations of the compound.
(§1) (i) The tests are performed in duplicate and the mean of the two tests is calculated.
(§2) (ii) The value of the signal of the maximum response is calculated from the positive control: cells stimulated with IGF1 without compound.
(§3) (iii) Value of the signal of the minimum response is calculated from the negative control: cells not stimulated with IGF1 without compound.
(§4) (iv) By using these values as maximum (100%) and minimum (0%), respectively, the data were normalized so as to give a percentage of the maximum response.
(§5) (v) A curve of dose response is plotted and the IC50 (the concentration of which the compound induces a 50% decrease in the signal) of the compound is calculated by non-linear regression analysis.

[1] = molecular target: T1, human cytoplasmic domain of IGF-1R (Homo sapiens, UniProt P08069); assay: Kinase IGF-1R test: inhibition of autophosphorylation of the enzyme (HTRF); format: biochemical; settings: ATP 120 μM
T1 construct: The human cytoplasmic domain of IGF-1R was cloned by fusion with glutathione S-transferase (GST); made in house; host or cells: SF21 insect cells (baculovirus, pFastBac-GST)
Experimental: A) Experimental Protocol for the Kinase IGF-1R Test:
The inhibitory activity of the compounds on IGF1R is determined by measuring the inhibition of autophosphorylation of the enzyme using a time-resolved fluorescence test (HTRF). The human cytoplasmic domain of IGF-1R was cloned by fusion with glutathione S-transferase (GST) in the baculovirus expression vector pFastBac-GST. The protein is expressed in the SF21 cells and purified to about 80% homogeneity. For the enzymatic test, the test compound at 10 mM dissolved in DMSO is diluted in ⅓ steps in a 50 mM Hepes, pH 7.5, 5 mM MnCl2, 50 mM NaCl, 3% Glycerol, 0.025% Tween 20 buffer. To measure the inhibition, the successive dilutions of the compound are preincubated for 30 minutes and 90 minutes in the presence of 5 nM of enzyme, the final DMSO concentration not exceeding 1%. The enzymatic reaction is initiated to have a final ATP concentration of 120 μM, and is stopped after 5 minutes by addition of 100 mM Hepes, pH 7.0 buffer containing 0.4 M of potassium fluoride, 133 mM EDTA, 0.1% BSA, the XL665-labelled antibody anti-GST and the anti-phosphotyrosine antibody conjugated to europium cryptate Eu—K (Cis-Bio Int.). The characteristics of the two fluorophores, XL-665 and Eu—K, are available in G. Mathis et al., Anticancer Research, 1997, 17, pages 3011-3014. The energy transfer between the excited europium cryptate to the acceptor XL665 is proportional to the degree of autophosphorylation of IGF-1R. The specific long-lasting signal of XL-665 is measured in a GENios Pro TECAN plate counter. The inhibition of autophosphorylation of IGF-1R at time 30 minutes and 90 minutes with the test compounds of the invention is calculated relative to a 1% in DMSO control, whose activity is measured in the absence of compound. The curve representing the percentage of inhibition as a function of the log of the concentration is established to determine the concentration corresponding to 50% inhibition (IC50),

IGF-1R in MCF7 cells = IGF-1R in MCF7 cells (Homo sapiens, UniProt P08069); assay: Autophosphorylation of IGF-1R in MCF7 cells after stimulation with IGF-1 (ELISA); format: cell-based; parameters: endogenous in cells; host or cells: MCF-7 cells; settings: MCF-7 cells, compound added one hour before stimulation with IGF1; read-out: Test B IC50
Experimental: B) Measurement of the Autophosphorylation of IGF-1R in MCF7 Cells after Stimulation with IGF-1
Cell Culturing and Execution of the Test:
The autophosphorylation of IGF1R in the IGF1-induced cells is evaluated by means of an ELISA technique (Enzyme Linked ImmunoSorbent Assay). The MCF-7 are seeded at 60 000 cells per well in 6-well plates and incubated at 37° C., 5% CO2 in medium containing 10% serum. After one night in 10% serum, the cells are deprived of serum for 24 hours. The compounds are added to the medium one hour before stimulation with IGF1. After 10 minutes of stimulation with IGF1, the cells are lysed with a buffer (Hepes 50 mM pH 7.6, Triton X100 1%, orthovanadate 2 mM, protease inhibitor cocktail). The cell lysates are incubated on a 96-well plate precoated with an anti-IGF1R antibody, followed by incubation with an anti-phosphotyrosine antibody coupled to the enzyme peroxidase. The level of peroxidase activity (measured by OD with a luminescent substrate) reflects the phosphorylation status of the receptor.
as §1, §2, §3, §4, §5

[2] = preincubation 30 minutes with 5 nM enzyme, read-out: Test A 30′ IC50
[3] = preincubation 90 minutes with 5 nM enzyme, read-out: Test A 90′ IC50

Sequence of IGF-1R in MCF7 cells (P08069 31-1367): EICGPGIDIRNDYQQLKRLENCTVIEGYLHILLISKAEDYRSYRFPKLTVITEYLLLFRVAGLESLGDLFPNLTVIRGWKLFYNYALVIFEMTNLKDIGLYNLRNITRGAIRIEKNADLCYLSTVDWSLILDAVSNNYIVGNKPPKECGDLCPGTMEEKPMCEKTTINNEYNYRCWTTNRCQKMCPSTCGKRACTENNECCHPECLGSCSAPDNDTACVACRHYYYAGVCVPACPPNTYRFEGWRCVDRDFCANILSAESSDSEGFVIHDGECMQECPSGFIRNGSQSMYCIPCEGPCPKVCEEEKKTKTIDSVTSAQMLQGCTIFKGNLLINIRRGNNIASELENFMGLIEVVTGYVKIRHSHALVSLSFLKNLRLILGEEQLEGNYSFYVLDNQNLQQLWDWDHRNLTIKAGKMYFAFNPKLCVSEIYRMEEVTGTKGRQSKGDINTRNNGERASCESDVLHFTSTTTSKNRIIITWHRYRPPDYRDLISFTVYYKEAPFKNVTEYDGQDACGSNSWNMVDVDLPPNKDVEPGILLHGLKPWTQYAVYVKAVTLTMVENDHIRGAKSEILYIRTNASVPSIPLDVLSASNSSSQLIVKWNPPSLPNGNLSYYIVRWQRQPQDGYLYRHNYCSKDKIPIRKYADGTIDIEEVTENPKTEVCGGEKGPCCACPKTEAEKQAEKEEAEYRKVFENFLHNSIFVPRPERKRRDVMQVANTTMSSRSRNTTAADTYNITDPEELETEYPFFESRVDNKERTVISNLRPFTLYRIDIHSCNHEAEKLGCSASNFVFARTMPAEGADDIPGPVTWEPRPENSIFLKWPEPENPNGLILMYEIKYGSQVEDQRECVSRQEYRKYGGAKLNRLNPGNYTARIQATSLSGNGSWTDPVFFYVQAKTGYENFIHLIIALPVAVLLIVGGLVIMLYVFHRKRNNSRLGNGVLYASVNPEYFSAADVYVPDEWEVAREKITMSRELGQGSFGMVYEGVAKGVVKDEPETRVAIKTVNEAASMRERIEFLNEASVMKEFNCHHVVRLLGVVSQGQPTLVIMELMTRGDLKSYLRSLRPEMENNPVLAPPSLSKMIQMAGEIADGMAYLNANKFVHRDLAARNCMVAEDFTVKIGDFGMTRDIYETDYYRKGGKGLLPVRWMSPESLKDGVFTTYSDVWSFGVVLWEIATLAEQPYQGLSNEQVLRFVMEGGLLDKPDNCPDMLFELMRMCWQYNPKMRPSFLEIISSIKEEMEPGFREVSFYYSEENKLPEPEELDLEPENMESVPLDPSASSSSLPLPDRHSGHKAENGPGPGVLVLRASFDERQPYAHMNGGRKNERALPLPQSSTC
T1 sequence (P08069 960-1367 limits assumed): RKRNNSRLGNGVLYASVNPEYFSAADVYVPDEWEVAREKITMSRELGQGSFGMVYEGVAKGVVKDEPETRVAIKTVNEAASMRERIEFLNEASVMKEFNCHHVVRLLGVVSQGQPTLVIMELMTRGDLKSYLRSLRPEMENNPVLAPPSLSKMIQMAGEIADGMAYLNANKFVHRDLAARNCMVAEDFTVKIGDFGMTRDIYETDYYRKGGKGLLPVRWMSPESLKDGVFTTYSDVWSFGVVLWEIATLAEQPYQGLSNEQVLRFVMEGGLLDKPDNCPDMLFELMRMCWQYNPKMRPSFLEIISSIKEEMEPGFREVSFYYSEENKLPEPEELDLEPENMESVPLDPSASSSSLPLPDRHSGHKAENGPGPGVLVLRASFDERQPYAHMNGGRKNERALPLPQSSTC

Compound	IC50 [1, 2] [nM]	IC50 [1, 3] [nM]	IC50 (IGF-1R in MCF7 cells) [nM]	IC50 (MEF-IGF1R cells) [nM]
CC1(C)C(=O)N(c2ccc(SC(F)(F)F)cc2)C(=O)N1Cc1ccnc(NC(=O)c2ccc(Cl)c(Cl)c2)c1 [Example 3, 3,4-dichloro-N-{4-[(5,5-dimethyl-2,4-dioxo-3-{4-[(trifluoromethyl)thio]phenyl}imidazolidin-1-yl)methyl]pyridin-2-yl}benzamide]	> 100	> 100	> 100	10 to 100
CNC(=O)Nc1cc(CN2C(=O)N(c3ccc(S(=O)(=O)C(F)(F)F)cc3)C(=O)C2(C)C)ccn1 [Example 4, 1-{4-[(5,5-dimethyl-2,4-dioxo-3-{4-[(trifluoro-methyl)sulfonyl]phenyl}imidazolidin-1-yl)methyl]pyridin-2-yl}-3-methylurea]	> 100	10 to 100	< 10	10 to 100
CN(C)C(=O)Nc1nccc(CN2C(=O)N(c3ccc(SC(F)(F)F)cc3)C(=O)C2(C)C)n1 [Example 10, 3-{4-[(5,5-dimethyl-2,4-dioxo-3-{4-[(trifluoro-methyl)thio]phenyl}imidazolidin-1-yl)methyl]pyrimidin-2-yl}-1,1-dimethylurea]	> 100	> 100	–	> 100
CN(C)C(=O)Nc1nccc(CN2C(=O)N(c3ccc(S(=O)(=O)C(F)(F)F)cc3)C(=O)C2(C)C)n1 [Example 12, 3-{4-[(5,5-dimethyl-2,4-dioxo-3-{4-[(trifluoro-methyl)sulfonyl]phenyl}imidazolidin-1-yl)methyl]pyrimidin-2-yl}-1,1-dimethylurea]	> 100	> 100	–	> 100
CC1(C)C(=O)N(c2ccc(SC(F)(F)F)cc2)C(=O)N1Cc1ccnc(Nc2cncc(F)c2)c1 [Example 17, 1-({2-[(5-fluoropyridin-3-yl)amino]pyridin-4-yl}-methyl)-5,5-dimethyl-3-{4-[(trifluoromethyl)thio]phenyl}imidazolidine-2,4-dione]	> 100	10 to 100	–	> 100
CC1(C)C(=O)N(c2ccc(SC(F)(F)F)cc2)C(=O)N1Cc1ccnc(NC(=O)NC2CCCCC2)c1 [Example 25, 1-cyclohexyl-3-{4-[(5,5-dimethyl-2,4-dioxo-3-{4-[(trifluoromethyl)thio]phenyl}imidazolidin-1-yl)methyl]pyridin-2-yl}urea]	> 100	10 to 100	–	> 100
CC1(C)C(=O)N(c2ccc(SC(F)(F)F)cc2)C(=O)N1Cc1ccnc(NC(=O)NCCN2CCCCC2)c1 [Example 31, 1-{4-[(5,5-dimethyl-2,4-dioxo-3-{4-[(trifluoro-methyl)thio]phenyl}imidazolidin-1-yl)methyl]pyridin-2-yl}-3-(2-piperidin-1-ylethyl)urea]	> 100	10 to 100	–	> 100
CCCCNC(=O)Nc1cc(CN2C(=O)N(c3ccc(SC(F)(F)F)cc3)C(=O)C2(C)C)ccn1 [Example 37, 1-butyl-3-{4-[(5,5-dimethyl-2,4-dioxo-3-{4-[(tri-fluoromethyl)thio]phenyl}imidazolidin-1-yl)methyl]pyridin-2-yl}urea]	> 100	10 to 100	–	10 to 100
CN(C)CCCNC(=O)Nc1cc(CN2C(=O)N(c3ccc(SC(F)(F)F)cc3)C(=O)C2(C)C)ccn1 [Example 38, 1-[3-(dimethylamino)propyl]-3-{4-[(5,5-dimethyl-2,4-dioxo-3-{4-[(trifluoromethyl)thio]phenyl}imidazolidin-1-yl)methyl]pyridin-2-yl}urea]	10 to 100	10 to 100	–	> 100

More lines, main results first:

IC50 [1, 2] [nM]	IC50 [1, 3] [nM]	IC50 (IGF-1R in MCF7 cells) [nM]	Compound	IC50 (MEF-IGF1R cells) [nM]
10 to 100	10 to 100	–	1-{4-[(5,5-dimethyl-2,4-dioxo-3-{4-[(trifluoro-methyl)thio]phenyl}imidazolidin-1-yl)methyl]pyridin-2-yl}-3-(2-morpholin-4-ylethyl)urea [Example 33]	> 100
10 to 100	10 to 100	–	1-{4-[(5,5-dimethyl-2,4-dioxo-3-{4-[(trifluoro-methyl)thio]phenyl}imidazolidin-1-yl)methyl]pyridin-2-yl}-3-[2-(4-methylpiperazin-1-yl)ethyl]urea [Example 32]	> 100
10 to 100	< 10	–	CC1(C)C(=O)N(c2ccc(SC(F)(F)F)cc2)C(=O)N1Cc1ccnc(NC(=O)NC2CC(CO)C2)c1 (mixture of isomers) [Example 40B Stage a), 1-{4-[(5,5-dimethyl-2,4-dioxo-3-{4-[(trifluoro-methyl)thio]phenyl}imidazolidin-1-yl)methyl]pyridin-2-yl}-3-[3-(hydroxymethyl)cyclobutyl]urea]	–
> 100	> 100	> 100	CC1(C)C(=O)N(c2ccc(SC(F)(F)F)cc2)C(=O)N1Cc1ccnc(Nc2cc(Cl)ccc2Cl)c1 [Example 1, 1-({2-[(2,5-dichlorophenyl)amino]pyridin-4-yl}-methyl)-5,5-dimethyl-3-{4-[(trifluoromethyl)thio]phenyl}imidazolidine-2,4-dione]	10 to 100
10 to 100	10 to 100	< 10	CC1(C)C(=O)N(c2ccc(SC(F)(F)F)cc2)C(=O)N1Cc1ccnc(NC(=O)N2CCCCC2)c1 [Example 2, N-{4-[(5,5-dimethyl-2,4-dioxo-3-{4-[(trifluoro-methyl)thio]phenyl}imidazolidin-1-yl)methyl]pyridin-2-yl}piperidine-1-carboxamide]	10 to 100
10 to 100	–	> 100	CC1(C)C(=O)N(c2ccc(SC(F)(F)F)cc2)C(=O)N1Cc1ccnc(Nc2cc(F)ccc2F)c1 [Example 5, 1-({2-[(2,5-difluorophenyl)amino]pyridin-4-yl}-methyl)-5,5-dimethyl-3-{4-[(trifluoromethyl)thio]phenyl}imidazolidine-2,4-dione]	10 to 100
10 to 100	< 10	–	CN(C)CCCCNC(=O)Nc1cc(CN2C(=O)N(c3ccc(SC(F)(F)F)cc3)C(=O)C2(C)C)ccn1 [Example 40, 1-[4-(dimethylamino)butyl]-3-{4-[(5,5-dimethyl-2,4-dioxo-3-{4-[(trifluoromethyl)thio]phenyl}imidazolidin-1-yl)-methyl]pyridin-2-yl}urea]	> 100

From patent publication US20090082329A1 (AVENTIS PHARMA S.A., priority 2006, published 2009)
